One experiment relates to B16F10 tumors. Kind of experiment: B16F10 tumor model: tumor growth and survival. Format: in vivo, mouse. As to the method:
C57BL/6J mice were injected with 7×10^4 TC-1 cells per mouse or 1×10^5B16F10 cells per mouse in the right flank. Treatment in respective groups was started when tumors reached an average size of approximately 0.075 cm^3. […] Mice were treated daily with IP injection at a dose of 50 mg kg-1.
For vaccination, TC-1-specific E7 peptide (a nine amino acid peptide, […] (SEQ ID NO: 1); 100 μg per mouse per 100 μl; Celtak Bioscience) or B16-specific gp10025-33 nonamer peptide ([…] (SEQ ID NO: 2); 100 μg per mouse per 100 μl; AnaSpec) were used. Both the vaccines were mixed with a small 13-mer nonnatural pan-HLA DR-binding epitope (PADRE (SEQ ID NO: 3); aK-Cha-[…]a (SEQ ID NO: 4), where ‘a’ is d-alanine, and ‘Cha’ is 1-cyclohexylalanine, T helper epitope, 20 μg per mouse; Celtak Bioscience) and QuilA (adjuvant, 10 μg per mouse; Brenntag). For survival and therapy experiments, mice were vaccinated three times, starting at an average tumor size of 0.07 cm^3, while for immune response experiments mice were vaccinated twice with a one-week interval between vaccinations. Tumors were measured every 3-4 days using a digital vernier caliper, and the tumor volume was calculated using the formula: V=L×W2/2000, where V is tumor volume, L is the length of the tumor (longer diameter) and W is the width of the tumor (shorter diameter). Mice were monitored for tumor growth and survival. Mice were euthanized when the tumor volume reached 1.5 cm^3.

The test system of the next experiment is TC-1. Kind of experiment: Tumor growth in immune deficient nude mice (TC-1). Format: in vivo, mouse. As to conditions: TC-1 in immune deficient nude mice. The method, then: (§1) The effect of PARPi on direct CD8 T cell-driven anti-tumor immune response remains poorly understood. Therefore, to dissect this effect, the anti-tumor immune effect of PARPi was tested in vivo in tumor models that require T cell priming, which helps delineate the direct effect of the drug on CD8 T cells. […] While 18% and 10% of mice survived in the vaccine-treated and PARPi-treated groups, respectively, in the TC-1 tumor model at day 22, 90% survived when PARPi was added to the vaccine. Similarly, in the B16F10 tumor model, 10% of the mice treated with vaccine alone were alive at day 22, compared to 40% when PARPi was added.

Experiment [1] concerns CD8+ T cells in TME of TC-1 tumors. Kind of experiment: Immune profiling of the TME, TC-1 tumor-bearing mice. It is filed as in vivo, mouse. From the text: (§2) Two-to-three days after the second vaccination, mice in the various groups were euthanized and tumors were collected.
(§3) A total of 0.1-0.2×10^6 cells per sample were stained for Live/Dead staining followed by fixation and permeabilization. For IFNγ and granzyme B (Gzm B) staining, BD Cytofix/Cytoperm (catalog no. 51-2090KZ) and BD Perm/Wash (catalog no. 51-2091KZ) buffer set were used according to the manufacturer's instructions (BD Pharmingen). CD8^+ T cells from tumor samples were stained similarly. Data acquisition was performed on a BD LSR II flow cytometer using the software FACS Diva v.9.0. Results were analyzed using FlowJo software (TreeStar). MitoFM, a green-fluorescent mitochondrial stain, which localizes to mitochondria, was used as described previously (Sukumar et al., Cell Metab 23 (1): 63-76, 2016).

For the next experiment, the system named is B16F10. Description: Tumor growth in immune deficient nude mice (B16F10). Format: in vivo, mouse. As to the method:
as §1

In experiment [2] the test system is CD8+ T cells in TME of B16F10 tumors. Kind of experiment: Immune profiling of the TME, B16F10 tumor-bearing mice. It is filed as in vivo, mouse.
Description: as §2, §3

For another experiment, the system named is SIRT-1/FOXO1. Description: SIRT-1/FOXO1 signaling, Western blot and immunofluorescence. It is filed as cell-based, mouse. The method, then:
pMel-1 CD8 T cells were activated with gp100 in the presence or absence of PARPi for 48 h containing glass coverslips. Cells were then washed with PBS (Mg^+ca^+), fixed for 5 min with 4% PFA and permeabilized in PBS/triton 1×. […] Finally, DAPI staining was applied. Images were acquired with a Leica TCS-SP5II upright confocal microscope (Leica Microsystems).
(A western blot detects proteins with antibodies after separation by electrophoresis.)

Experiment [3] deals with pMel-1 CD8 T cells. Kind of experiment: Seahorse assays (OCR, ECAR). Format: cell-based, mouse. The settings on record: PARPi-induced TCM^sup vs gp100-induced TCM. As to the method: CD8 T cells were activated with gp100 peptide with/without PARPi for 48 h, followed by mitochondrial stress tests (SeaHorse Bioscience), performed as per the manufacturer's specifications. OCR and ECAR were measured with an XFp flux analyzer (Seahorse Bioscience). For all assays, 160,000 cell per ml were plated onto culture plates using Cell-Tak (BD Biosciences). OCR and ECAR were measured in unbuffered DMEM (Agilent Biotechnologies) supplemented with 10 mM D-glucose (Sigma-Aldrich), 10 mM L-glutamine and 2.5 mM pyruvate, as indicated. The rates of FAO were determined in variously treated cells, as described above, using a Seahorse XF Palmitate-BSA FAO Reagent kit, used according to the manufacturer's instructions (Agilent Biotechnologies).

Experiment [4] deals with pMel-1 CD8 T cells. Description: RNA-sequencing of gp100-activated pMel-1 CD8 T cells. Format: cell-based, mouse. From the text:
Ribo-Zero Plus Kit from Illumina® was used for stranded Total RNA Prep Ligation. This protocol involves the removal of ribosomal RNA (rRNA) using biotinylated, target-specific oligos combined with Ribo-Zero rRNA removal beads. RNA was fragmented into small pieces and the cleaved RNA fragments were copied into first strand cDNA using reverse transcriptase and random primers, followed by second strand cDNA synthesis using DNA Polymerase I and RNase H. The resulting double-strand cDNA were used as the input to a standard Illumina library prep with end-repair, adapter ligation and PCR amplification being performed to give a sequencing ready library. The final purified product was then quantitated by qPCR before cluster generation and sequencing on NovaSeq 6000 instrument.

For the molecule `O=C(c1cc(Cc2n[nH]c(=O)c3ccccc23)ccc1F)N1CCN(C(=O)C2CC2)CC1` [olaparib], in the experiment on B16F10 tumors (B16F10, PARPi 50 mg/kg IP daily in combination with gp100 vaccine), the “tumor growth and survival, enhancement of anti-tumor immune response of the vaccine” value was “significantly retarding tumor growth and prolonging survival”. This molecule also gave a mice alive in the experiment on B16F10 tumors (B16F10 tumor model, day 22, PARPi added to the vaccine (gp100)) of 40%. Besides, in the experiment with B16F10 tumors (B16 model, PARPi alone), the single agent effect result is “no single agent effect”. Besides, the tumor growth result in the experiment with TC-1 and in the experiment with B16F10 was “did not affect tumor growth” each time. The “number of total and antigen-specific CD8+ T cells in TME” value is “significant increase” in experiment [1] (TC1, vaccinated in the presence of PARPi vs either treatment alone) and “significant increase” in experiment [2] (B16, vaccinated in the presence of PARPi vs either treatment alone). In addition, the “IFNγ+ and granzyme B+ total and antigen-specific CD8+ T cells” value in experiment [1] (TC-1, PARPi given with the vaccine) is reported as “enhanced functionality”; in experiment [2] (B16F10, PARPi given with the vaccine), “enhanced functionality”. For the same molecule, the “CD44hiCD62Lhi CD8 T cells within the TCM compartment in the TME” value in experiment [1] (TC-1, PARPi in combination with vaccine) is recorded as “appearance of a distinct population”. In addition, the “vaccine-induced total and antigen-specific effector (TEM) and central memory (TCM) CD8 T cells in the TME” value in experiment [1] (TC-1, PARPi with vaccine) was “increased”. Further, the “proliferation of CD8 T cells as determined by Ki67 expression” value in experiment [1] (TC-1 TME) and in experiment [2] (B16F10 TME) was “significant decrease” in each case. Also, the “vaccine-induced central memory CD8 T cells in the TME” value in experiment [2] (B16F10, PARPi with vaccine) was “increased”. In addition, the FOXO1 acetylation entry with SIRT-1/FOXO1 (PARPi-treated CD8 T cells) is reported as “decrease”. In addition, the “SIRT-1 expression and activity” value in the experiment on SIRT-1/FOXO1 (activated pMel-1 CD8 T cells) is “increased”. Moreover, the “FOXO1 in the nucleus” value in the experiment with SIRT-1/FOXO1 (immunofluorescence and Western blot, compared to gp100-activated cells) was “increase in accumulation and expression”. Also, the FOXO1 phosphorylation entry in the experiment on SIRT-1/FOXO1 (total lysate) is on record as “significant reduction”. In addition, the “extracellular acidification rate (ECAR; Glycolysis)” value in the experiment on pMel-1 CD8 T cells [3] is reported as “decrease”. In addition, the “oxygen consumption rate (OCR; OXPHOS)” value with pMel-1 CD8 T cells [3] is given as “significant increase”. In addition, the “genes related to OXPHOS and FAO (Acot1, Cpt1α)” value in the experiment with pMel-1 CD8 T cells [4] (PARPi-treated vs gp100, 48 h) is listed as “significantly upregulated”. Moreover, the “genes related to the glycolysis pathway (Eno1, Aldoc, Pgk1, Gapdh)” value in the experiment on pMel-1 CD8 T cells [4] (PARPi-treated vs gp100, 48 h) is “significantly downregulated”. Also, the “expression of genes related to memory (Sell, Bcl2, Ccr7, Slpr1, Cd44, Tcf7, Klf2, Eomes)” value in the experiment on pMel-1 CD8 T cells [4] (after PARPi treatment, 48 h) is given as “significant increase”.
